Assay results as given in article PMC3904457 (ACS medicinal chemistry letters, 2013).

Target: T1, COX-1 (Ovis aries, UniProt P05979)
T1 sequence (P05979 25-600): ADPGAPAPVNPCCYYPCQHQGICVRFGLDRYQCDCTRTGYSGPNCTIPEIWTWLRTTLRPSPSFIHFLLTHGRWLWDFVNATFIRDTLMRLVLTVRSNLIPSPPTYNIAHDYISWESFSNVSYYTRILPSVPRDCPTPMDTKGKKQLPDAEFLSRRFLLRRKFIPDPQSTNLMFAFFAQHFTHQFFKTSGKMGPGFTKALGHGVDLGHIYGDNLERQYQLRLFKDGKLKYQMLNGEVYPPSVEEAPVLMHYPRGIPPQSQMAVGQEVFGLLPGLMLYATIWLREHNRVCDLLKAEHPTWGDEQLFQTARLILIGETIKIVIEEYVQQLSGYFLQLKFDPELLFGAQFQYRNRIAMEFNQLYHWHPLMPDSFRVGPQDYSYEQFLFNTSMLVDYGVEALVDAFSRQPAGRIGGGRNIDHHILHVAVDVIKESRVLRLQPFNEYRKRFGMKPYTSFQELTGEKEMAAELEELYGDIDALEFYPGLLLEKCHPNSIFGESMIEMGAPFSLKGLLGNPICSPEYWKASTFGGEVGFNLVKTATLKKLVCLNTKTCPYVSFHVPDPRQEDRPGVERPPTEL
Assay: inhibition of COX-1-catalyzed oxidation of arachidonic acid
Format: biochemical
Details: at concentrations up to 1 mM

- COX-1 inhibition (in words): not able to significantly inhibit COX-1
SMILES: Cc1nc2c(c(C)c1O)CNC(=O)N2 [compound 13]
